Source: PubChem BioAssay (NCI)
Values joined by “and” are separate entries in the source; they are usually repeats but may differ in a detail not shown here. Identical values can stand only once.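 Values below derive from 48-hour exposures of cells grown in 96-well plates, with endpoints linearly interpolated between the two concentrations bracketing the appropriate inhibition level. GI50 = concentration required for 50% inhibition of growth. Definition used: TGI = concentration required for complete inhibition of growth.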

How the values were obtained:
Experiment in all cases: NCI tumour cell line growth inhibition, 48 h
DMS 114 small cell lung = tested on: DMS 114 small cell lung
HOP-18 NSCLC = tested on: HOP-18 NSCLC
KM20L2 colon = tested on: KM20L2 colon
LXFL 529 NSCLC = tested on: LXFL 529 NSCLC
M19-MEL melanoma = tested on: M19-MEL melanoma
SNB-78 CNS = tested on: SNB-78 CNS
RXF-631 renal = tested on: RXF-631 renal
XF 498 CNS = tested on: XF 498 CNS
MDA-N = tested on: MDA-N

| Compound | TGI (DMS 114 small cell lung) | TGI (HOP-18 NSCLC) | TGI (KM20L2 colon) | TGI (LXFL 529 NSCLC) | TGI (M19-MEL melanoma) | TGI (SNB-78 CNS) | TGI (RXF-631 renal) | other results |
| --- | --- | --- | --- | --- | --- | --- | --- | --- |
| [CH3][Hg]/[N]=C(/N)NC#N | 3.43 µM | 17.1 µM | 33.4 µM | 3.08 µM | 25.2 µM | 27.1 µM | – | GI50 (DMS 114 small cell lung): 1.98 µM; GI50 (HOP-18 NSCLC): 4.63 µM; GI50 (KM20L2 colon): 17.3 µM; GI50 (LXFL 529 NSCLC): 1.43 µM; GI50 (M19-MEL melanoma): 12.1 µM; GI50 (SNB-78 CNS): 4.76 µM |
| O=C(CC1(O)C(=O)Nc2ccccc21)c1ccccc1O (stereo not given) | > 100 µM | – | > 100 µM | > 100 µM | > 100 µM | > 100 µM | > 100 µM | TGI (XF 498 CNS): > 100 µM |
| O=C(CC(=O)c1cccc([N+](=O)[O-])c1)C(=O)Nc1ccccc1 | > 100 µM | > 100 µM | > 100 µM | > 100 µM | > 100 µM | > 100 µM | > 100 µM | TGI (XF 498 CNS): > 100 µM |
| Cc1ccc(NC(=O)CC2SC(=Nc3ccc(Cl)cc3)NC2=O)cc1C (stereo not given) | 42.1 µM | 32.5 µM | 33.5 µM | 34 µM | 36.1 µM | 44.3 µM | – | – |
| COc1cc2c(cc1-c1coc3cc(O)ccc3c1=O)OCO2 | – | – | – | – | – | – | – | TGI (MDA-N): > 100 µM |
| CN1C2(c3ccccc3)C(C(=O)c3ccccc3)=C(C(=O)c3ccccc3)C1(c1ccccc1)c1c(-c3ccccc3)sc(-c3ccccc3)c12 | > 100 µM | – | > 100 µM | > 100 µM | > 100 µM | > 100 µM | – | – |
| Cc1cc(C)nc(NS(=O)(=O)c2ccc(NC(=O)COC(=O)c3cccc4c(=O)c5ccccc5[nH]c34)cc2)n1 | > 100 µM | – | > 100 µM | > 100 µM | 42.1 µM | > 100 µM | – | TGI (XF 498 CNS): > 100 µM |
| Cc1ccccc1-n1c(CCl)nc2ccc(Br)cc2c1=O | 20.5 µM | 55.3 µM | 39.9 µM | 18.5 µM | 19.9 µM | 52.2 µM | 42.1 µM | – |
| O=C(Cc1nc2ccccc2o1)C(=O)Nc1ccc(Cl)cc1Cl | > 100 µM | > 100 µM | > 100 µM | > 100 µM | > 100 µM | > 100 µM | – | – |
| CCn1ncc(N=O)c1N | – | – | – | – | – | – | – | TGI (MDA-N): > 100 µM |
| CCc1ccccc1NC(=O)C(=O)C1C(=O)N(c2ccccc2)N=C1N (stereo not given) | > 100 µM | > 100 µM | > 100 µM | > 100 µM | > 100 µM | > 100 µM | > 100 µM | TGI (XF 498 CNS): > 100 µM |
| NC(=O)c1csc(-c2ccc(CO)o2)n1 | – | – | – | – | – | – | – | TGI (MDA-N): > 100 µM |
| CCC(C)C1NC(=O)C(NC(=O)C(CC(C)C)N(C)C(=O)[C@@H]2CC(O)CN2C(=O)[C@H](C)O)C(C)OC(=O)[C@H](Cc2ccc(OC)cc2)N(C)C(=O)[C@@H]2CCCN2C(=O)[C@H](CC(C)C)NC(=O)C(C)C(=O)[C@H](C(C)C)OC(=O)CC1O (stereo not given in full) | – | – | – | – | – | – | – | GI50 (MDA-N): 0.0292 µM; TGI (MDA-N): 1.07 µM and 1.11 µM |
| N#C/C(=C\c1ccc[nH]1)C(=O)c1ccccc1 | > 100 µM | > 100 µM | > 100 µM | > 100 µM | > 100 µM | > 100 µM | > 100 µM | – |
| O=C(O)c1ccc(/C=N/N=C2c3ccccc3-c3ccccc32)cc1 | – | – | – | – | – | – | – | TGI (MDA-N): > 100 µM |
| COC(=O)C1=CC(=O)[C@@H]2CCCC[C@H]12 | > 100 µM | > 100 µM | > 100 µM | > 100 µM | > 100 µM | > 100 µM | > 100 µM | – |
| Cc1cc(C)c(/C=N/NS(=O)(=O)c2ccccc2)c(C)c1 | > 100 µM | > 100 µM | > 100 µM | > 100 µM | > 100 µM | > 100 µM | > 100 µM | – |
| C[C@]12CCc3nn(-c4ccccc4)nc3C1CC[C@@H]1C2CC[C@]2(C)C(=O)CCC12 (stereo not given in full) | > 100 µM | > 100 µM | > 100 µM | > 100 µM | > 100 µM | > 100 µM | – | – |
| COC(=O)C(C(=O)C(=O)Nc1ccccc1C)c1nc2ccc([N+](=O)[O-])cc2[nH]c1=O (stereo not given) | > 100 µM | > 100 µM | > 100 µM | > 100 µM | > 100 µM | > 100 µM | – | TGI (XF 498 CNS): > 100 µM |
